In patent US10016414B2, “Modulation of ubiquitination of synaptic proteins for the treatment of neurodegenerative and psychiatric disorders” (UNIVERSITY OF MASSACHUSETTS, priority 2010, dated 2018):
Values joined by “and” are separate entries in the source; they are usually repeats but may differ in a detail not shown here. Identical values can stand only once. Peptide text beside a SMILES is read from it. * marks the point of attachment. Cbz = O=C(OCc1ccccc1)*

How the values were obtained:
[1] = tested on: surface GluA1 (AMPAR) in hippocampal neurons; test: Aβ-induced AMPAR endocytosis: surface GluA1 in cultured hippocampal neurons; assay type: cell-based, rat; conditions: for GluA1 surface expression (GluA1 puncta normalized to SV2 puncta and to naïve cultures): 2 hrs, naïve 100%±4%, n=3
Experimental: A. Micrograph showing GluA2 surface expression upon Aβ treatment in the presence or absence of Nutlin-3. Rat hippocampal neurons were cultured, and treated with Aβ or Aβ together with either Nutlin-3 (5 μM) or HLI373 (15 μM) for 2 hours. The final concentration of Aβ was 0.3 ng/mL. Naïve and Nutlin-3 and HLI373 treatments, without Aβ treatment, were used as controls. Surface expression of AMPARs was measured by labeling the cultured neurons in vivo with an antibody to the AMPAR subunit GluA1, followed by confocal microscopy and immunofluorescence quantification by MetaMorph. The number of GluA1 puncta was normalized to SV2 puncta (a presynaptic marker) and to the value in control naïve cultures. […] Scale bar=5 μm. B. Bar graph showing quantification of the percentage of surface GluA1 in response to the various treatment described in A. Results are presented as mean±SEM.
Soluble amyloid beta (Aβ) peptides contribute directly to synapse loss and decreased dendritic spine density and glutamate receptors at the synapse. Moreover, Aβ has been reported to induce AMPAR internalization in cultured neurons. To evaluate the effect of Mdm2 inhibitors on this process, cultured rat hippocampal neurons were treated for 2 hrs with Aβ (or Aβ together with either Nutlin-3 (5 μM) or HLI-373 (15 μM). Aβ can be prepared from 7PA2 Chinese hamster ovary (CHO) cells stably expressing human amyloid precursor protein (APP)751 containing the V717 mutation (Walsh et al., 2005; Shankar et al., 2007; Shankar et al., 2011), and is also available commercially from, e.g., rPeptide (Bogart, G A). The concentration of Aβ in the hippocampal cultures was 0.3 ng/mL. Naïve and Nutlin-3 and HLI-373 treatments were used as controls. Surface expression of AMPARs was measured by labeling the cultured neurons in vivo with an antibody to the AMPAR subunit GluA1, followed by confocal microscopy and immunofluorescence quantification by MetaMorph. The number of GluA1 puncta was normalized to SV2 puncta (a presynaptic marker) and to the value in control naïve cultures (see FIGS. 8A and B).
Minimum inhibitor concentrations of Nutlin-3a or HLI-373, as well as any other Mdm2 inhibitor identified using the screens described supra, can be readily determined by using different ranges of inhibitor concentrations and assessing the effects of the particular concentrations on surface expression of AMPARs. Similar results are expected with other inhibitors of PSD-95 ubiquitination by Mdm2, such as PSD-95 inhibitors.

[2] = tested on: PSD-95 degradation; conditions: Colledge et al., 2003; cited from earlier work
[3] = tested on: 3×Tg-AD mice; conditions: Martinez-Coria-LaFeria, 2010; cited from earlier work
[4] = tested on: interaction of β-adaptin with PSD-95; test: NMDA-dependent interaction of PSD-95 with β-adaptin in acute forebrain slices (co-immunoprecipitation); assay type: cell-based, mouse; conditions: NMDA 100 μM, 3 min; for interaction of β-adaptin with PSD-95 (percentage of p53 knockout unstimulated control): n=3
Experimental: A. Immunoblot showing that NMDA receptors regulate the interaction of PSD-95 with β-adaptin. Acute forebrain slices from wild-type mice were stimulated with NMDA (100 μM, 3 min) and, after NMDA washout, incubated for additional 5 or 10 min.
B. Immunoblot showing that genetic deletion of Mdm2 reduces the NMDA-dependent interaction of PSD-95 with β-adaptin. Acute forebrain slices from p53 knockout (control) and Mdm2/p53 double knockout mice were stimulated with NMDA (100 μM, 3 min) and, after NMDA washout, incubated for an additional 5 or 10 min.
Acute forebrain slices were prepared as previously described (Patel et al., 2003; Zhang et al., 2008). Briefly, brains of adult wild-type, p53 knockout or Mdm2/p53 double knockout mice were isolated, and 300 μm coronal slices of forebrain (within the region corresponding approximately to Bregma −1.0 to −3.5 mm, containing the hippocampus) were prepared using a Vibratome (Leica Microsystems VT1000S) in ice-cold oxygenated artificial cerebrospinal fluid (ACSF: 117 mM NaCl, 1.7 mM KCl, 1.2 mM MgCl2, 2.5 mM CaCl2, 1.2 mM NaH2PO4, 25 mM NaHCO3, 11.5 mM glucose). Slices were preincubated in ACSF for 1 h before treatments and all experiments were conducted at 32° C. in 95% O2 and 5% CO2 incubator. NMDA treatment was conducted by incubating slices with 100 μM NMDA for 3 min in ACSFcLTD (124 mM NaCl, 5 mM KCl, 1.5 mM MgCl2, 2.5 mM CaCl2, 1.25 mM NaH2PO4, 26 mM NaHCO3, 10 mM glucose) (Lee et al., 1998). After agonist washout, the slices were further incubated in ACSF-cLTD for the time indicated (5-10 min). Slice lysates were prepared as previously described (Zhang et al., 2008) and PSD-95 immunoprecipitated from the lysates was analyzed by Western blot and quantified as described above. Values were expressed as mean±S.E.M. and statistically compared using analysis of variance (ANOVA).
PSD-95 is important for NMDAR-induced endocytosis of synaptic AMPARs (Colledge et al., 2003; Bhattacharyya et al., 2009) and a brief application of NMDA induces both a rapid and transient increase in PSD-95 ubiquitination, which peaks approximately 10 min after the onset of NMDA treatment (Colledge et al., 2003). […] Following a brief (3 min) stimulation with 100 μM NMDA, a treatment that induces AMPAR endocytosis (Bhattacharyya et al., 2009), acute forebrain slices from adult wildtype mice were analyzed at 5 min and 10 min after agonist washout. PSD-95 immunoprecipitated from slice lysates was analyzed for coimmunoprecipitation of β-adaptin and ubiquitination (FIG. 5A).
To further investigate whether ubiquitination of PSD-95 promotes the interaction of PSD-95 with β-adaptin, this interaction was investigated in acute brain slices derived from mice with a genetic deletion of the ubiquitin ligase Mdm2. Acute forebrain slices from adult Mdm2/p53 double knockout mice and control p53 knockout mice were analyzed at 5 min and 10 min after NMDA (100 μM, 3 min) washout. The interaction of PSD-95 with β-adaptin was assessed by immunoblot of PSD-95 immunoprecipitated from slice lysates (FIG. 5B).

[5] = tested on: surface GluA2 (AMPAR) in hippocampal neurons; test: NMDA-induced AMPAR endocytosis: surface GluA2 by antibody feeding in hippocampal cultures; assay type: cell-based, rat; conditions: NMDA 100 μM for 3 min
Experimental: A. Micrograph showing GluA2 surface expression upon NMDA treatment in the presence or absence of Nutlin-3. Cultured hippocampal neurons were subjected to an antibody feeding protocol using an antibody that recognizes an extracellular domain of GluA2. The neurons were subsequently pretreated with Nutlin-3 (5 μM for 30 min) prior to NMDA treatment (100 μM for 3 min), followed by agonist washout. Neurons were incubated for an additional 15 min (with or without Nutlin-3) before immunocytochemical analysis of PSD-95 and surface GluA2 by confocal microscopy.
B. A bar graph depicting the proportion of GluA2 found at the surface of cultured hippocampal neurons upon treatment with or without NMDA, in the presence or absence of Nutlin-3. Results are presented as mean±SEM.
Brief stimulation of NMDARs induces AMPAR endocytosis in cultured neurons (Colledge et al., 2003; Bhattacharyya et al., 2009). To determine whether Nutlin-3a antagonizes NMDA-induced AMPAR endocytosis, measured as loss of surface AMPAR staining, the surface expression of GluA2 (a subunit of AMPARs in rat hippocampal cultures) was assessed. Surface GluA2 were labeled in vivo by an antibody feeding protocol using an antibody that recognizes an extracellular domain of GluA2 (Ehlers, 2000; Lin et al., 2000; Bhattacharyya et al., 2009). Neurons were pretreated with Nutlin-3a (5 μM for 30 min) prior to NMDA treatment. After brief stimulation with NMDA (100 μM for 3 min) and agonist washout, neurons were incubated for an additional 15 min (with or without Nutlin-3a) before immunocytochemical analysis of PSD-95 and surface GluA2 by confocal microscopy under the same settings. Immunostained puncta were quantified using MetaMorph software (3 neurons from 2 coverslips with approximately 450 puncta analyzed/condition) and the number of GluA2 puncta was normalized to the number of PSD-95 puncta.
Naïve and NMDA-stimulated conditions were used as controls. […]

[6] = tested on: PSD-95 ubiquitination; test: PSD-95 ubiquitination in acute forebrain slices (PSD-95 immunoprecipitation, ubiquitin/FK1/FK2 immunoblot); assay type: cell-based, mouse; conditions: wild-type slices; NMDA 100 μM, 3 min; 10 min after washout

## CN(C)CCCNc1c2c(=O)n(C)c(=O)nc-2n(C)c2ccccc12 [HLI-373]
[1]; Aβ 0.3 ng/mL, 2 hours, Nutlin-3 5 μM, HLI373 15 μM
  effect on loss of surface GluA1 induced by Aβ: prevented the loss of surface GluA1 induced by Aβ treatment
[1]; co-treatment with Aβ 0.3 ng/mL, Nutlin 5 μM, HLI373 15 μM
  GluA1 surface expression (GluA1 puncta normalized to SV2 puncta and to naïve cultures): 132.18%±11.33%
[1]; inhibitor alone, without Aβ, Nutlin-3 5 μM, HLI-373 15 μM
  GluA1 surface expression (GluA1 puncta normalized to SV2 puncta and to naïve cultures): 170.95%±5.37%

## CC(C)C[C@@H](C=O)NC(=O)[C@H](CC(C)C)NC(=O)[C@H](CC(C)C)NC(=O)OCc1ccccc1 [MG132] (Cbz-Leu-Leu-Leu-aldehyde)
[2]
  effect on PSD-95 degradation: protect PSD-95 from degradation

## CC12CC3CC(C)(C1)CC(N)(C3)C2 [Memantine, 1-amino-3,5-dimethyl-adamantane]
[3]
  AD-like neuropathology in 3×Tg-AD mice: reduce AD-like neuropathology
  cognition in 3×Tg-AD mice: improve cognition

## CN[C@H](CC(=O)O)C(=O)O [NMDA, N-Methyl-D-aspartic acid]
[4]; Mdm2/p53 double knockout slices, 5 min after washout
  interaction of β-adaptin with PSD-95 (percentage of p53 knockout unstimulated control): 45.6%±1.8%
[4]; Mdm2/p53 double knockout slices, 10 min after washout
  interaction of β-adaptin with PSD-95 (percentage of p53 knockout unstimulated control): 99.8%±43.7%
[4]; p53 knockout slices, 5 min after washout, control 100%±14.9%
  interaction of β-adaptin with PSD-95 (percentage of p53 knockout unstimulated control): 209.0%±72.6%
[4]; p53 knockout slices, 10 min after washout
  interaction of β-adaptin with PSD-95 (percentage of p53 knockout unstimulated control): 549.8%±168% and 549.8%±167.7%
[4]; wild-type slices, 10 min after washout
  coimmunoprecipitation of β-adaptin with PSD-95 versus unstimulated control: coimmunoprecipitation of β-adaptin with PSD-95 10 min after NMDA washout
[5]
  PSD-95 puncta following NMDA stimulation of naïve cultures: did not decrease
[5]; then 15 min, no inhibitor, naïve 100%±9.47%, n=3
  GluA2 surface expression (GluA2 puncta normalized to PSD-95 puncta, versus naïve control): 41.95±9.63%
[6]
  PSD-95 ubiquitination (FK2 immunoblot) versus unstimulated control: increased ubiquitination at 10 min after NMDA washout
